From patent US11685766B2, “14-3-3 targeting peptides for cancer treatment” (Creighton University, priority 2019, dated 2023) come the findings set out here.

In one assay the target is T1, 14-3-3ε protein (Homo sapiens, UniProt P62258).
T1 sequence (P62258 1-255): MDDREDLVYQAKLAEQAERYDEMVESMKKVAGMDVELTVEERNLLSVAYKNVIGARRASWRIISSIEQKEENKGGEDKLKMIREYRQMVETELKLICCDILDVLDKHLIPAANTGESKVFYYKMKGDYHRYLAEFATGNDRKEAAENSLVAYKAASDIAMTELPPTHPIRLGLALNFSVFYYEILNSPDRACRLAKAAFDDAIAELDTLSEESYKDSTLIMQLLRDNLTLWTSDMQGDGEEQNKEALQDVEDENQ
Description: Differential scanning fluorimetry (DSF) binding. As to conditions: 7 μM 14-3-3ε, ΔTm vs peptide concentration, Hill fit; read-out: Kd, binding affinity to 14-3-3ε protein (DSF). The protocol:
Differential scanning fluorimetry (DSF) experiments were performed using BioRad CFX384 Real-Time qPCR attached with C1000 Touch Thermo Cycler in the FRET channel. 7 μM subunits of 14-3-3ε protein, ten molar excess of Sypro Orange and 20 mM Tris-HCl, pH 7.4 assay buffer were used in all the melting experiments. Stock solution of peptides were prepared by dissolving 1 mg of lyophilized peptides in 20 mM Tris, pH 7.4 buffer and 0.1 μM to 200 μM dilution series were prepared. Protein melting experiments were performed both in the absence and the presence of increasing concentration of peptides. 15 μL of each samples (in triplicate) were put into each well of a 384-well white PCR plate and sealed with optical adhesive sealer (BioRad MSB-1001) and any air-bubble in the solutions were removed by spinning the plate vertically with PCR plate spinner (Labnet MPS 1000) at 1000 RPM for 3 minutes. The temperature was increased from 25° C. to 95° C. at a rate of 0.7° C. per minute. Melting temperatures of each well were determined using the CFX Maestro software version 2.0 by plotting the first derivative of fluorescence signal against temperature. All the measurements were performed in triplicate and the deviations of melting temperatures (ΔTm) presented for each samples were calculated relatively to three control samples (7 μM 14-3-3ε in the absence of the peptide). Binding constant (Kd) for each peptide was calculated by plotting ΔTm against peptide concentration and data points were fitted with Hill's equation using GraphPad 9.0 software.

The test system of a further assay is SCC12B.2 cells. Type of assay: cell-based, human. The protocol:
Human skin cancer cell lines (SCC12B.2, SCC13, SRB12) were maintained in Dulbecco's modified Eagle's medium (DMEM) (Invitrogen, Carlsbad, Calif., USA) supplemented with 1% penicillin (10 000 U/ml)-streptomycin (10 000 μg/ml) (PenStrep) (Invitrogen) and 10% fetal bovine serum (Gemini Bio-Products, Sacramento, Calif., USA) at 37° C. and 5% CO2. Normal human epidermal keratinocytes (nHEK) (Thermo Scientific, Waltham, Mass., USA) isolated from neonatal foreskin were cultured in EpiLife medium (Invitrogen) supplemented with human keratinocyte growth supplement (Invitrogen) and 1% PenStrep (Invitrogen). Cells were transfected with control pcDNA or pcDNA3.1-HA-14-3-3ε (Addgene plasmid #48797; http://n2t.net/addgene:48797; RRID:Addgene_48797) using Lipofectamine/Plus reagents (Life Technologies, Carlsbad, Calif., USA) or with siRNA targeting 14-3-3ε (Dharmacon, Lafayette, Colo., USA), 14-3-3γ (Dharmacon), 14-3-3ζ, (Dharmacon), Survivin (Cell Signaling, Danvers, Mass., USA), Akt (Dharmacon) or control siRNA (Santa Cruz Biotechnology, Dallas, Tex., USA) using siQuest transfection reagents (Mirus Bio, Madison, Wis., USA) or treated with Akt inhibitor GSK690693 (Tocris Bioscience, Bristol, United Kingdom) or cell cycle inhibitor 5-Fluorouracil (5-FU) (Thermo Fisher) resuspended in DMSO.
To determine the half maximal inhibitory concentration (IC50) for ES1P2 in SCC12B.2 and nHEK cells, cells were plated in a 96-well plate at a density of 6×10^3 cells/well. Twenty-four hours after plating, cells were treated with increasing concentrations of ES1P2 (0-75 μM) in Opti MEM medium supplemented with reduced serum (Invitrogen) for 4 consecutive days. ES1P2 peptide was resuspended fresh, daily in 25 mM Tris buffer (pH 7.5). Neutral Red Cell Viability assays were performed, where absorbance was measured using a Cytation 5 multi-mode plate reader (BioTek). The experiment was repeated three separate times with 4 replicate wells per experiment to obtain an average IC50 value.
Carcinoma human cell lines (SCC12B.2 and SCC13) were maintained in Dulbecco's modified Eagle's medium (DMEM) (Invitrogen, Carlsbad, Calif., USA) supplemented with 1% penicillin (10 000 U/ml)-streptomycin (10 000 μg/ml) (PenStrep) (Invitrogen) and 10% fetal bovine serum (Gemini Bio-Products, Sacramento, Calif., USA) at 37° C. and 5% CO2. Primary normal human epidermal keratinocytes (nHEK) (Thermo Fisher Scientific, Waltham, Mass., USA) isolated from neonatal foreskin were maintained in EpiLife medium (Invitrogen) supplemented with human keratinocyte growth supplement (HKGS) and 1% PenStrep. nHEK cells were not passaged more than twice before experiments. Cells were treated with CDC25A inhibitor NSC663284 (Tocris Bioscience, Bristol, United Kingdom) suspended in DMSO, transfected with wild type CDC25A or control plasmid using Lipofectamine/Plus transfection reagents (Life Technologies, Carlsbad, Calif., USA) or transfected with siRNA targeting 14-3-3 ε or control siRNA (Santa Cruz Biotechnology, Dallas, Tex., USA) using siQuest transfection reagents (Mirus Bio, Madison, Wis., USA).
To determine the half maximal inhibitory concentration (IC50) for pS and pT in SCC12B.2 cells, cells were plated in a 96-well plate at a density of 6×10^3 cells/well. […] Neutral Red Cell Viability assays were performed, where absorbance was measured using a Cytation 5 multi-mode plate reader (BioTek). […]

Several values for one entry are separate records, joined by “and”; a condition that tells them apart may be missing. Equal values may be shown once. Read-outs that look alike come from different tables or passages of the source. Peptide text beside a SMILES is read from it.

Broadly, the Kd is the free concentration of one partner at which half of the binding sites on the other are occupied at equilibrium, for simple one-to-one binding. By IC50 is commonly meant the concentration that gives 50% inhibition. On to `CC(=O)N[C@@H](CCCNC(=N)N)C(=O)N[C@H](C(=O)N[C@@H](CCCCN)C(=O)N[C@@H](CO)C(=O)N[C@@H](CCCNC(=N)N)C(=O)N[C@H](C(=O)N[C@@H](Cc1c[nH]c2ccccc12)C(=O)N[C@@H](C)C(=O)NCC(=O)N[C@@H](CCC(=O)O)C(=O)N[C@@H](CCCCN)C(=O)N[C@@H](CO)C(=O)N[C@@H](CCCCN)C(=O)N[C@@H](CCCNC(=N)N)C(N)=O)[C@@H](C)OP(=O)(O)O)[C@@H](C)O` [pT, Ac-Arg-Thr-Lys-Ser-Arg-Thr(PO3^2−)-Trp-Ala-Gly-Glu-Lys-Ser-Lys-Arg-NH2] (HELM PEPTIDE1{[ac].R.T.K.S.R.[C[C@@H](OP(=O)(O)O)[C@H](N[*:1])C(=O)[*:2]].W.A.G.E.K.S.K.R.[am]}$$$$V2.0), for which the Kd at 14-3-3ε protein stood at 3.64 µM. In the assay on SCC12B.2 cells (SCC12B.2 cells, Neutral Red, treated 4 consecutive days, 0-75 μM, read-out: IC50 in SCC cells (cell viability dose response)), the IC50 was 22.1 µM and 22.6 µM.
As for `NCCCC[C@H](NC(=O)[C@H](Cc1c[nH]c2ccccc12)NC(=O)[C@H](Cc1ccc(O)cc1)NC(=O)[C@@H](N)Cc1c[nH]c2ccccc12)C(N)=O` [ES1P2, Trp-Tyr-Trp-Lys-NH2] (H-WYWK-NH2), the IC50 in the assay with SCC12B.2 cells turned out to be 20.6 µM. In addition, the SCC cells alive in the assay with SCC12B.2 cells (20 μM, alone, FIG. 1D) came to 62 % alive.
On to `CSCC[C@H](NC(=O)[C@H](CCCNC(=N)N)NC(=O)[C@@H]1CCCN1C(=O)[C@H](C)NC(=O)[C@H](COP(=O)(O)O)NC(=O)[C@H](CC(N)=O)NC(=O)[C@H](CCC(N)=O)NC(=O)[C@H](CCCNC(=N)N)NC(=O)[C@H](CCC(N)=O)NC(=O)[C@@H](NC(C)=O)[C@@H](C)O)C(=O)N[C@@H](CC(C)C)C(=O)N[C@@H](CO)C(=O)N[C@@H](CO)C(=O)N[C@@H](CC(N)=O)C(N)=O` [pS, Ac-Thr-Gln-Arg-Gln-Asn-Ser-(PO3^2−)-Ala-Pro-Arg-Met-Leu-Ser-Ser-Asn-NH2] (HELM PEPTIDE1{[ac].T.Q.R.Q.N.[O=C([C@H](COP(=O)(O)O)N[*:1])[*:2]].A.P.R.M.L.S.S.N.[am]}$$$$V2.0), for which the Kd at 14-3-3ε protein was determined as 11.2 µM. For the same molecule, the IC50 in the assay with SCC12B.2 cells was determined as 29 µM.
